Measured values from patent EP0351418B1, “VIRAL VECTOR SYSTEM FOR THE INTRODUCTION OF FOREIGN DNA […] INTO GA[…]” (SYNERGEN, INC., priority 1987, dated 1988).

Tested on: HVT
Assay: Growth and plaque formation of HVT in CEF in the presence of AraT
Assay type: cell-based, herpesvirus of turkeys (HVT)
Excerpt: In HSV-infected cells, ¹²⁵IdC is incorporated into DNA only after it has been phosphorylated by the viral TK as described by Summers and Summers, J. Virol. 24: 314-318 (1977), specifically incorporated herein by reference. Moreover, growth of HVT in CEF is inhibited by the drug AraT, whereas uninfected CEF appears to be unaffected. AraT (1-beta-D-arabinofuranosyl-thymine obtained from Calbiochem) is lethal to cells only once it is incorporated into the DNA where it acts as a chain-terminator. Again by analogy to HSV, AraT-resistance is likely to be due to mutations in the thymidine kinase gene.
AraT-resistant variants occur spontaneously in populations of FC126, and are isolated by growing cell-free virus as described by Calnek et al., Avian Dis. 16:52-56 (1972), specifically incorporated herein by reference, in CEF in the presence of 100 ug/ml AraT. Specifically, 150 mm tissue culture dishes are seeded with 2 X 10⁷ cells of secondary CEF. Two hours later the medium is removed, and 2 X 10⁴ pfu of cell-free HVT are adsorbed for 30 minutes. After adsorption, 30 ml of medium containing 100 ug/ml of AraT is added. Cells are fluid-changed every two days, always with AraT, and monolayers are screened for plaques 4-5 days post-infection at 40-fold magnfication using an inverted microscope. One AraT-resistant variant ATR° was found in 2 X 10⁵ pfu screened initially. Subsequent experiments have yielded AraT resistant HVT at least that frequency. ATR° remains stable for at least nine passages in the absence of AraT.
In addition, wild-type HVT has a growth advantage over the AraT-resistant variants. These differences between the wild-type HVT and HVT that are AraT-resistant, form the basis for a marker-rescue assay that allows for the identification of the region of DNA, and thus the gene which confers resistance to AraT. DNA from the AraT resistant HVT (10 ug of total infected-cell DNA) is co-transfected with individual DNA clones (200 ng of plasmid DNA or 1 ug of phage DNA) representing the genome of HVT. […]

Cc1cn([C@@H]2O[C@H](CO)[C@@H](O)[C@@H]2O)c(=O)[nH]c1=O [AraT, 1-beta-D-arabinofuranosyl-thymine]
effect on uninfected CEF (AraT, uninfected CEF): unaffected
growth of HVT in CEF (in the presence of AraT): inhibited
plaque-forming ability of wild-type HVT (in the presence of AraT): completely inhibits
